Results published in publication PMC7767506, “Synthesis and Characterization of Store-Operated Calcium Entry Inhibitors Active in the Submicromolar Range” (International Journal of Molecular Sciences, 2020).
Entries after “also recorded” stand apart in the source; their conditions may differ.

Key:
[1] = system: Orai1-deficient lymphoblastoid cell line; experiment: SOCE in Orai1-deficient lymphoblastoid cell line (LCL Orai1-); format: cell-based, human; details: 1 µM
Protocol: We next tested P11 efficacy on two lymphoblastoid cell lines (“LCL”) established from an Orai1-deficient with a severe combined immunodeficiency (“LCL Orai1−”) and a healthy (“LCL Orai1+”) patients (Figure 3C [19]). […] However, CaCl2 addition after 10 min of TG treatment was only able to induce a massive [Ca^2+]cyt rise in LCL expressing Orai1 proteins, confirming the SOCE default of the SCID patient.
[Ca^2+]cyt was recorded by a fluorimetric ratio technique as previously described. Leukocytes were spun and resuspended at a density of 10^6 cells/mL in Hepes buffered saline (HBS; 135 mM NaCl, 5.9 mM KCl, 1.2 mM MgCl2, 11.6 mM Hepes, 11.5 mM glucose adjusted to pH 7.3 with NaOH). Due to the presence of 0.002% Ca^2+ in the NaCl, this HBS medium contained 0.1 mM of Ca^2+. […] Ultraviolet light of 360 nm was used for excitation of Indo-1, and emissions at 405 and 480 nm were recorded. […] The maximum Indo-1 fluorescence (Rmax) was obtained by adding 1 µM ionomycin to the cell suspension in the presence of 10 mM extracellular CaCl2. Minimum fluorescence was determined following the depletion of external Ca^2+ with 5 mM EGTA.
To visualize the SOCE, cells were placed into the quartz cuvette and 0.5 EGTA was added just before the beginning of the recordings. […] In the dose-response experiments, different concentrations of 2-APB and its analogs were added 30 s prior to Ca^2+ readdition.

SERCA = SERCA (Mus musculus, UniProt O55143); experiment: SERCA-mediated 45Ca2+ store loading in permeabilized L15 fibroblasts; format: cell-based
Chain of SERCA (O55143 whole entry): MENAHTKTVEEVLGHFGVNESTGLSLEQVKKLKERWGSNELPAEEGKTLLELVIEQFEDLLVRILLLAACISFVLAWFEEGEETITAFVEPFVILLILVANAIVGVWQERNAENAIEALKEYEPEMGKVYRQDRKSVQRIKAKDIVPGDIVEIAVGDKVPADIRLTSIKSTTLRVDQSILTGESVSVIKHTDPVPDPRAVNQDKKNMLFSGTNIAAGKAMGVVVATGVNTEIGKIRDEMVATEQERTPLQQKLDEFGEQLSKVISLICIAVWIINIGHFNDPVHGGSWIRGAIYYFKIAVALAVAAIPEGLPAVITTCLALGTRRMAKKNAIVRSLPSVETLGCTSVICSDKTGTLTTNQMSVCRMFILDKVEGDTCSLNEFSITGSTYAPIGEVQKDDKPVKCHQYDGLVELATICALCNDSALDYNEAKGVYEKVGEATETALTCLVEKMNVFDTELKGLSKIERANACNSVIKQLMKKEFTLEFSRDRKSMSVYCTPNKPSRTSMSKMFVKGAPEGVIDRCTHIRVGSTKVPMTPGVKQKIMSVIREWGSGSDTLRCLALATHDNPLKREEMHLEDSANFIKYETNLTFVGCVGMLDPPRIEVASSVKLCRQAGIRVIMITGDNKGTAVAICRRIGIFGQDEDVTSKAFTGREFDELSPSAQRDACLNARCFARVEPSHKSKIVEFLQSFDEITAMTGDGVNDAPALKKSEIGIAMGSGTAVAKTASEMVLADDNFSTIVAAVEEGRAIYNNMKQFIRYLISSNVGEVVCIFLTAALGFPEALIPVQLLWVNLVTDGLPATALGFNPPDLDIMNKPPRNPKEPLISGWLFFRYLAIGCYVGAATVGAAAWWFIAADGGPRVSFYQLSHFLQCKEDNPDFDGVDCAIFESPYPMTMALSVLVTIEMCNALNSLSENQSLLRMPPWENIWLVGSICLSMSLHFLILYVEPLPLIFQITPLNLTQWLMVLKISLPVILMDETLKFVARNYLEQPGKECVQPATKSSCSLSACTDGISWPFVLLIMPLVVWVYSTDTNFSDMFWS
Protocol: (§1) Measurements of SERCA-mediated ^45Ca^2+ store loading and IP3-dependent release from the ER Ca^2+ store were performed on permeabilized cells in unidirectional conditions. As this approach required the use of cells forming strongly adherent monolayers, we used L15 fibroblasts stably overexpressing IP3R1, similarly to our previous work.
The L15 fibroblasts stably overexpressing IP3R1 were seeded in gelatin-coated 12-well plates (Greiner, Frickenhausen, Germany) at a density of 60,000 cells per well. Unidirectional ^45Ca^2+ flux experiments on confluent cell monolayers were performed at 30 °C after membrane permeabilization with saponin (40 µg/mL), exactly as previously described. After permeabilization, the non-mitochondrial Ca^2+ stores were loaded for 45 min in 120 mM KCl, 30 mM imidazole–HCl (pH 6.8), 5 mM MgCl2, 5 mM ATP, 0.44 mM EGTA, 10 mM NaN3, and 150 nM free ^45Ca^2+ (28 µCi mL^−1). Subsequently, efflux was initiated by incubation in efflux medium (120 mM KCl, 1 mM EGTA, 10 µM TG and 30 mM imidazole–HCl pH 6.8). The latter medium was replaced every two minutes for 18 minutes. The exact amount of Ca^2+ at each time point is calculated by summing in retrograde order the amount of radioactivity remaining in the cells at the end of the efflux and the radioactivity collected during the successive time intervals. This allows to calculate the steady-state content of the ER Ca^2+ stores (indicative for the SERCA activity, after subtraction of the loading achieved in the presence of 2 µM TG) the basal leak rate of Ca^2+ out of the stores and the IP3-induced Ca^2+ release after addition of IP3 (0.7 µM). These various parameters were measured both in control conditions or in the presence of various 2-APB analogs as indicated. To assess the effect of the 2-APB analogs on the SERCA-mediated loading of the ER Ca^2+ stores, the analogs were added during the ^45Ca^2+-loading phase as described previously. Obviously, compounds that strongly stimulated the basal Ca^2+ leak out of the stores (as P8) could not be investigated for their effect on SERCA activity (as Ca^2+ loading was already compromised by the increased leak) or on IP3-induced Ca^2+ release (as the decreased luminal Ca^2+ level impacted both the driving force for Ca^2+ release and the sensitivity of the IP3R).

[2] = system: ER Ca2+ stores of L15 fibroblasts; experiment: Basal Ca2+ leak from ER stores, unidirectional 45Ca2+ flux in permeabilized L15 fibroblasts; format: cell-based
Protocol: as §1
The L15 fibroblasts stably overexpressing IP3R1 were seeded in gelatin-coated 12-well plates (Greiner, Frickenhausen, Germany) at a density of 60,000 cells per well. Unidirectional ^45Ca^2+ flux experiments on confluent cell monolayers were performed at 30 °C after membrane permeabilization with saponin (40 µg/mL), exactly as previously described. After permeabilization, the non-mitochondrial Ca^2+ stores were loaded for 45 min in 120 mM KCl, 30 mM imidazole–HCl (pH 6.8), 5 mM MgCl2, 5 mM ATP, 0.44 mM EGTA, 10 mM NaN3, and 150 nM free ^45Ca^2+ (28 µCi mL^−1). Subsequently, efflux was initiated by incubation in efflux medium (120 mM KCl, 1 mM EGTA, 10 µM TG and 30 mM imidazole–HCl pH 6.8). […] The exact amount of Ca^2+ at each time point is calculated by summing in retrograde order the amount of radioactivity remaining in the cells at the end of the efflux and the radioactivity collected during the successive time intervals. […] These various parameters were measured both in control conditions or in the presence of various 2-APB analogs as indicated. […]

Jurkat cells = experiment: Cell death by trypan blue staining of Jurkat cells; format: cell-based, human
Protocol: As this diminution in IL-2 synthesis can both be explained by the decrease of its synthesis by all cells, or by a decrease in the number of cells that can synthesize IL-2, we next evaluated cell death by trypan blue staining in the presence of PHA stimulation with and without the addition of compound P11.
Forty-eight-well plates were seeded with 10^6 Jurkat T cells per well. Cells were then incubated for 24 h with or without 10 µg/mL PHA and 0 to 1 µM P11 in complete culture medium. After 24 h, supernatants were collected, and IL-2 amounts were quantified using a Quantikine Human IL-2 Immunoassay (R&D Systems Europe, Lille, France). Optical density (OD) was measured at 450 nm using a Victor3 plate reader (Perkin Elmer, Courtaboeuf, France). The concentration of supernatant IL-2 was determined from the OD curve obtained with the standard. Results were the mean of four repeats. In parallel plates, cell viability was accessed after treatment with trypan blue and counting with a Malassez hematimeter (Sigma-Aldrich, Saint Quentin Fallavier, France).

[3] = system: PHA-stimulated Jurkat cells; experiment: PHA-induced Ca2+ mobilization in Jurkat cells, Indo-1; format: cell-based, human
Text: Having shown that compound P11 was able to block the Jurkat cell SOCE, we next performed experiments using phytohemagglutinin (“PHA”). PHA is commonly used to cross-link the T cell receptor allowing the synthesis of IL-2 and thereafter the T cell activation. […] Noteworthy, PHA was able to induce a weak Ca^2+ release from internal stores (orange curve). […] However, after reaching a peak at 180 s, the [Ca^2+]cyt started to decay and decreased to a value beneath the [Ca^2+]cyt before cell stimulation.
In experiments with PHA, cells were placed in the cuvette, and 0.9 mM CaCl2 was added to reach a 1 mM extracellular concentration. Free Ca^2+ concentrations were calculated using the Bad4 software

2-(dibiphenyl-4-ylboryloxy)ethanamine [P11]
effect on [Ca2+]cyt after SOCE activation [1]: inefficient
effect on SERCA (SERCA; concentrations < 1 µM): devoid of any inhibitory activity; also recorded: without any effect
change of SERCA activity (SERCA; concentrations > 30 µM): −89 ± 1%
Ki (SERCA; permeabilized L15 fibroblasts): 7.4 ± 2 µM
Ca2+ leak from the ER by an IP3-independent pathway [2]: did not induce a Ca^2+ leak
dead cells (trypan blue) (Jurkat cells; 1 µM P11 alone, 24 h): 4.0 ± 0.4%
dead cells (trypan blue) (Jurkat cells; PHA + 1 µM P11, 24 h): 33.2 ± 1.3%
PHA-induced Ca2+ release from internal stores ([3]; 1 µM): did not affect
PHA-induced Ca2+ mobilization ([3]; increasing [P11], 10 µg/mL PHA, 1 mM extracellular CaCl2): largely inhibited
